Assays:
Assay in all cases: relative viability (nuclei count vs DMSO), 5 days (fraction); higher = more cells survive
[1] = compound: CC1CC(=O)N(C2=CN=C(N=C2N1C3CCCC3)NC4=C(C=C(C=C4)C(=O)NC5CCN(CC5)C)OC)C [NPK76-II-72-1] + COc1cc2c(Oc3ccc(NC(=O)C4(C(=O)Nc5ccc(F)cc5)CC4)cc3F)ccnc2cc1OCCCN1CCOCC1 [Foretinib] (partner 0.25 µM)
How it was run: (§1)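 For relative viability, nuclei counts in treated wells were divided by those in vehicle wells. Lung cancer cell lines had been pin-tool dosed in 1536-well plates the day after seeding and cultured for 5 days, then fixed and stained in one step (final 0.05% Triton X-100, 1% formaldehyde, 1 ug/ml Hoechst) and imaged at 4×. Doses were one drug alone or a fixed anchor-drug dose plus five library-drug doses (not always all listed) in √10 steps, and values are duplicate-plate medians.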

BI-2536 + OSI-027 = compound: CC[C@@H]1C(=O)N(C)c2cnc(Nc3ccc(C(=O)NC4CCN(C)CC4)cc3OC)nc2N1C1CCCC1 [BI-2536] + COc1cccc2cc(-c3nc([C@H]4CC[C@H](C(=O)O)CC4)n4ncnc(N)c34)[nH]c12 [OSI-027] (partner 0.5 µM)
How it was run: as §1

BI-2536 + Lapatinib = compound: CC[C@@H]1C(=O)N(C)c2cnc(Nc3ccc(C(=O)NC4CCN(C)CC4)cc3OC)nc2N1C1CCCC1 [BI-2536] + CS(=O)(=O)CCNCc1ccc(-c2ccc3ncnc(Nc4ccc(OCc5cccc(F)c5)c(Cl)c4)c3c2)o1 [Lapatinib] (partner 2 µM)
How it was run: as §1

BI-2536 + Pemetrexed = compound: CC[C@@H]1C(=O)N(C)c2cnc(Nc3ccc(C(=O)NC4CCN(C)CC4)cc3OC)nc2N1C1CCCC1 [BI-2536] + Nc1nc2[nH]cc(CCc3ccc(C(=O)N[C@@H](CCC(=O)O)C(=O)O)cc3)c2c(=O)[nH]1 [Pemetrexed] (partner 0.2 µM)
How it was run: as §1

Row | Cell Line | relative viability ([1]; first compound 0.01 µM) | relative viability ([1]; first compound 0.03162 µM) | relative viability ([1]; first compound 0.1 µM) | relative viability ([1]; first compound 0.3162 µM) | relative viability ([1]; first compound 1 µM) | relative viability (BI-2536 + OSI-027; first compound 0.01 µM) | relative viability (BI-2536 + OSI-027; first compound 0.03162 µM) | relative viability (BI-2536 + OSI-027; first compound 0.1 µM) | relative viability (BI-2536 + OSI-027; first compound 0.3162 µM) | relative viability (BI-2536 + OSI-027; first compound 1 µM) | relative viability (BI-2536 + Lapatinib; first compound 0.01 µM) | relative viability (BI-2536 + Lapatinib; first compound 0.03162 µM) | relative viability (BI-2536 + Lapatinib; first compound 0.1 µM) | relative viability (BI-2536 + Lapatinib; first compound 0.3162 µM) | relative viability (BI-2536 + Lapatinib; first compound 1 µM) | relative viability (BI-2536 + Pemetrexed; first compound 0.01 µM) | relative viability (BI-2536 + Pemetrexed; first compound 0.03162 µM) | relative viability (BI-2536 + Pemetrexed; first compound 0.1 µM) | relative viability (BI-2536 + Pemetrexed; first compound 0.3162 µM) | relative viability (BI-2536 + Pemetrexed; first compound 1 µM)
1 | 201T | 1.06 | 1.12 | 1.15 | 1.06 | 1.27 | 0.331 | 0.715 | 0.728 | 0.0923 | 0.16 | 0.946 | 1.03 | 1.03 | 1.04 | 0.38 | 0.362 | 0.302 | 0.298 | 0.208 | 0.224
2 | A549 | 0.937 | 0.979 | 0.93 | 0.856 | 1.05 |  |  |  |  |  | 1.05 | 0.813 | 0.476 | 0.053 | 0.0394 |  |  |  |  | 
3 | A-427 | 0.923 | 1.04 | 1.08 | 1.14 | 1.07 | 0.464 | 0.471 | 0.251 | 0.12 | 0.119 | 0.905 | 1.08 | 1 | 0.969 | 0.135 | 1.01 | 1.07 | 0.504 | 0.198 | 0.196
4 | ABC-1 | 1.06 | 1.12 | 0.799 | 1.08 | 1.17 | 0.419 | 0.362 | 0.237 | 0.236 | 0.19 | 1.23 | 1.39 | 1.04 | 0.643 | 0.529 |  |  |  |  | 
5 | BEN | 0.676 | 0.526 | 0.748 | 0.657 | 0.635 | 0.312 | 0.261 | 0.272 | 0.233 | 0.169 | 0.631 | 0.578 | 0.479 | 0.228 | 0.235 | 0.676 | 0.83 | 0.447 | 0.325 | 0.422
6 | CAL-12T | 1.11 | 1.18 | 1.03 | 1.1 | 1.3 | 0.646 | 0.531 | 0.188 | 0.144 | 0.191 | 0.646 | 0.799 | 0.582 | 0.186 | 0.177 | 1.04 | 0.955 | 0.623 | 0.195 | 0.131
7 | COR-L23 | 0.915 | 0.977 | 1.01 | 0.9 | 0.979 | 0.864 | 0.484 | 0.216 | 0.107 | 0.139 | 1.05 | 0.776 | 0.357 | 0.0913 | 0.102 | 0.216 | 0.206 | 0.178 | 0.144 | 0.133
8 | COR-L 105 | 0.865 | 1.25 | 1.06 | 1.03 | 0.89 | 0.69 | 0.596 | 0.35 | 0.254 | 0.214 | 0.309 | 0.364 | 0.271 | 0.248 | 0.269 | 0.986 | 1.13 | 1.01 | 0.384 | 0.362
9 | Calu-6 | 0.833 | 0.991 | 0.772 | 0.823 | 0.913 |  |  |  |  |  | 0.957 | 0.666 | 0.703 | 0.122 | 0.132 |  |  |  |  | 
10 | ChaGo-K-1 | 0.923 | 0.91 | 0.994 | 0.92 | 0.882 | 0.661 | 0.577 | 0.253 | 0.136 | 0.155 |  |  |  |  |  | 0.268 | 0.264 | 0.215 | 0.179 | 0.17
11 | EBC-1 | 0.103 | 0.121 | 0.0919 | 0.114 | 0.108 |  |  |  |  |  | 0.21 | 0.194 | 0.203 | 0.174 | 0.155 |  |  |  |  | 
12 | EKVX | 0.428 | 0.878 | 0.773 | 0.3 | 1.15 | 0.717 | 0.731 | 0.66 | 0.258 | 0.149 | 0.199 | 0.205 | 0.205 | 0.142 | 0.117 | 0.389 | 0.403 | 0.326 | 0.194 | 0.28
13 | EMC-BAC-2 | 1.05 | 1.07 | 1.07 | 0.945 | 1.2 | 0.381 | 0.358 | 0.249 | 0.193 | 0.184 | 0.881 | 0.837 | 0.767 | 0.182 | 0.154 | 0.44 | 0.429 | 0.367 | 0.309 | 0.285
14 | EPLC-272H | 0.552 |  | 0.69 | 0.852 | 0.729 | 0.35 | 0.21 | 0.165 | 0.162 | 0.137 | 0.894 | 0.828 |  | 0.483 | 0.11 | 0.294 | 0.173 | 0.0902 | 0.106 | 0.0725
15 | H3255 | 0.838 | 0.797 | 0.854 | 0.633 | 0.867 | 0.51 | 0.586 | 0.188 | 0.259 | 0.323 | 0.256 | 0.225 | 0.076 | 0.117 | 0.143 | 0.543 | 0.528 | 0.492 | 0.248 | 0.268
16 | HARA | 0.913 | 1.06 | 0.797 | 0.819 | 1.1 | 0.512 | 0.738 | 0.152 | 0.0483 | 0.0491 | 0.703 | 0.814 | 0.569 | 0.0764 | 0.0911 | 0.258 | 0.313 | 0.222 | 0.146 | 0.126
17 | HCC-15 | 1.05 | 1.18 | 0.92 | 0.969 | 1.1 | 0.723 | 0.699 | 0.218 | 0.102 | 0.122 | 0.857 | 0.81 | 0.496 | 0.248 | 0.123 | 0.228 | 0.211 | 0.197 | 0.179 | 0.179
18 | HCC-44 |  |  |  |  |  | 0.483 | 0.527 | 0.13 | 0.135 | 0.12 | 1.07 | 0.988 | 0.287 | 0.0973 | 0.0863 | 0.738 | 0.612 | 0.651 | 0.38 | 0.246
